Reference: paper PMC13110364, “Design, Synthesis, and Biological Evaluation of Novel Triazine‐Based Dual Histone Deacetylase/phosphatidylinositol 3‐kinase Inhibitors for Breast Cancer Therapy” (Chemmedchem, 2026)

Columns and labels:
PI3Kα = PI3Kα (Homo sapiens, UniProt P42336); test: PI3Kα inhibition, 10-dose IC50 (Reaction Biology Corporation); type: biochemical
LY2 breast cancer cells = test: MTS cell viability assay, LY2; type: cell-based; details: 72 h treatment
Procedure: (§1) The cell viability effects of compounds 5a–5f were assessed in LY2, JIMT1, and MDA‐MB‐231 breast cancer cell lines using the 3‐(4,5‐dimethylthiazol‐2‐yl)‐5‐(3‐carboxymethoxyphenyl)‐2‐(4‐sulfophenyl)‐2H‐tetrazolium (MTS) assay. The MTS assay measures metabolic viability and serves as a first‐pass screen.
(§2) JIMT‐1 (DSMZ ACC 589) and MDA‐MB‐231 (ATCC HTB‐26) breast cancer cell lines were maintained in Dulbecco's Modified Eagle Medium (DMEM) High Glucose with L‐glutamine (D5796, Sigma) supplemented with 10% fetal calf serum. MCF7‐derivative LY2 breast cancer cells were previously described (REF: PMID: 33420368). LY2 cells were cultured in phenol red‐free MEM (PRF‐MEM; 51 200‐046, Gibco) supplemented with 10% charcoal dextran‐stripped fetal calf serum (CDS‐FCS; F6765, Merck), 2 mmol/L L‐glutamine (G7513, Merck), and 10^−8 mol/L 4‐hydroxytamoxifen (4‐OHT; H7904, Merck). All cell lines were maintained at 37°C in a humidified incubator with 5% CO2 and regularly authenticated and tested for mycoplasma.
(§3) Cell viability was evaluated in response to increasing concentrations of 5a‐5f (0.3, 1, 3, 10, and 30 μM) or vehicle control (0.1% DMSO). LY2, JIMT1, and MDA‐MB‐231 cells were seeded at a density of 2,500 cells per well in 96‐well plates with a total volume of 100 μL per well. Prior to treatment, cells were serum‐deprived for 24 h. Following serum depletion, cells were treated in complete growth medium for 72 h. Cell viability was assessed using the MTS assay (G1111, Promega) according to the manufacturer's instructions. Absorbance was measured at 495 nm using a BioTek Synergy HTX Multi‐Mode Microplate Reader (Agilent). Results were normalized to the vehicle control (DMSO), and the half‐maximal inhibitory concentration (IC50) of the inhibitors was determined by nonlinear regression (curve fit) using a four‐parameter variable slope model.

HDAC10 = HDAC10 (Homo sapiens, UniProt Q969S8); test: Selectivity profile, single dose 0.5 µM, HDAC10; type: biochemical; details: remaining enzyme activity; single‐dose duplicate mode at 0.5 μM; read-out: Enzyme % activity (relative to DMSO controls) at 0.5 µM, HDAC10
Procedure: (§4) The inhibitory profiles of 5b and 5f were evaluated against selected HDAC isoforms (HDAC1, HDAC3, HDAC4, HDAC8, and HDAC10) and PI3K isoforms (PI3Kδ, PI3Kγ, and PI3Kβ) at a fixed concentration of 0.5 µM (Table 3). […] While we explored the phenyl ring in the linker region to achieve selectivity for the HDAC6 isoform, we still observed HDAC class I inhibition. […] It is important to highlight that PI3Kδ is mainly expressed in hematopoietic system and plays roles in leukocyte signaling, T‐cell activation, and immune cell trafficking. FDA‐approved drug idelalisib is a selective PI3Kδ inhibitor in B‐cell malignancies; however, this drug is also related to disruption of the immune system, which can lead to immune manifestations, such as infections. In addition, while isoform‐selective PI3K inhibitors are well tolerated, pan‐inhibition of PI3K is less expected that compensatory mechanisms by the action of other PI3Ks can take place. Thus, a more balanced profile of PI3K inhibition can lead to an overall lack of toxicity of PI3K inhibitors.

MCF‐10A cells = test: Cell viability in nontransformed cell line MCF-10A; type: cell-based; details: Homo sapiens
Excerpt: Thus, further optimization will be required to improve the therapeutic index.
FIGURE 5 Dose‐dependent effects of compound treatment (5b and 5f) on nontransformed breast cell viability across MCF‐10A.

HDAC8 = HDAC8 (Homo sapiens, UniProt Q9BY41); test: Selectivity profile, single dose 0.5 µM, HDAC8; type: biochemical; details: remaining enzyme activity; single‐dose duplicate mode at 0.5 μM; read-out: Enzyme % activity (relative to DMSO controls) at 0.5 µM, HDAC8
Procedure: as §4

[1] = test system: JIMT1 breast cancer cells; test: MTS cell viability assay, JIMT1; type: cell-based; details: Homo sapiens, JIMT-1, 72 h treatment
Procedure: as §1, §2, §3

HDAC3 = HDAC3 (Homo sapiens, UniProt O15379); test: Selectivity profile, single dose 0.5 µM, HDAC3; type: biochemical; details: remaining enzyme activity; single‐dose duplicate mode at 0.5 μM; read-out: Enzyme % activity (relative to DMSO controls) at 0.5 µM, HDAC3
Procedure: as §4

[2] = test system: MDA‐MB‐231 triple‐negative breast cancer cell line; test: MTS cell viability assay, MDA-MB-231; type: cell-based; details: MDA‐MB‐231 cells, 72 h treatment
Procedure: as §1, §2, §3

PI3Kβ = PI3Kβ (Homo sapiens, UniProt P42338); test: Selectivity profile, single dose 0.5 µM, PI3Kβ; type: biochemical; details: remaining enzyme activity; single‐dose duplicate mode at 0.5 μM; read-out: Enzyme % activity (relative to DMSO controls) at 0.5 µM, PI3Kβ
Procedure: as §4

PI3Kδ = PI3Kδ (Homo sapiens, UniProt O00329); test: Selectivity profile, single dose 0.5 µM, PI3Kδ; type: biochemical; details: remaining enzyme activity; single‐dose duplicate mode at 0.5 μM; read-out: Enzyme % activity (relative to DMSO controls) at 0.5 µM, PI3Kδ
Procedure: as §4

Sequence of PI3Kδ (O00329 whole entry): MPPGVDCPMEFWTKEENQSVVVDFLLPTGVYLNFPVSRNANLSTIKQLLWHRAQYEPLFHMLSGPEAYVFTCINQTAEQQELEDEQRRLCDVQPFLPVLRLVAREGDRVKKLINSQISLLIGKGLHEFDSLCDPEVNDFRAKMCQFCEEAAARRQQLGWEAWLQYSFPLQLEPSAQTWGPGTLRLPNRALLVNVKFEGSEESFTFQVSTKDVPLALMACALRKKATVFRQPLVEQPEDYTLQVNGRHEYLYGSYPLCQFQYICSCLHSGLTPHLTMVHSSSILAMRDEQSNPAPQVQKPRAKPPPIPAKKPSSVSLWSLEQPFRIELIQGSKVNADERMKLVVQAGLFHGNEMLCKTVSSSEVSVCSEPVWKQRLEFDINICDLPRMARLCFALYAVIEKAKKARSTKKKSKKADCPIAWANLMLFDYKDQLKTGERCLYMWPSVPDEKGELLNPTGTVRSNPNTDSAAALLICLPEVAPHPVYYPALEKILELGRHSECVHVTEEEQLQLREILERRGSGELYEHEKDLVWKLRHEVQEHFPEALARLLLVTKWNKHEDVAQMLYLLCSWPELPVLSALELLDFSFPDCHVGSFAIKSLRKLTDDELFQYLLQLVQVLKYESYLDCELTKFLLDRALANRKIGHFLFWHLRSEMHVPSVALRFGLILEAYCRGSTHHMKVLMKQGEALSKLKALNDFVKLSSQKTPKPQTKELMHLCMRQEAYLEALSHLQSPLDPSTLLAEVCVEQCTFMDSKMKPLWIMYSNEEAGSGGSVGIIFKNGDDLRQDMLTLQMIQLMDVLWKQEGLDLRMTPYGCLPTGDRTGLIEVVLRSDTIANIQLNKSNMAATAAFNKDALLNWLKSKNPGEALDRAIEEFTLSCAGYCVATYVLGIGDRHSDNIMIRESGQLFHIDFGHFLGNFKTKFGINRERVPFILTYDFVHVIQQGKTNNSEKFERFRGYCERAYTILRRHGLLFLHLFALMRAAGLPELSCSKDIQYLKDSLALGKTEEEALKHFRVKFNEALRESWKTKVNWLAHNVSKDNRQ
Sequence of PI3Kδ (P27986 whole entry partner): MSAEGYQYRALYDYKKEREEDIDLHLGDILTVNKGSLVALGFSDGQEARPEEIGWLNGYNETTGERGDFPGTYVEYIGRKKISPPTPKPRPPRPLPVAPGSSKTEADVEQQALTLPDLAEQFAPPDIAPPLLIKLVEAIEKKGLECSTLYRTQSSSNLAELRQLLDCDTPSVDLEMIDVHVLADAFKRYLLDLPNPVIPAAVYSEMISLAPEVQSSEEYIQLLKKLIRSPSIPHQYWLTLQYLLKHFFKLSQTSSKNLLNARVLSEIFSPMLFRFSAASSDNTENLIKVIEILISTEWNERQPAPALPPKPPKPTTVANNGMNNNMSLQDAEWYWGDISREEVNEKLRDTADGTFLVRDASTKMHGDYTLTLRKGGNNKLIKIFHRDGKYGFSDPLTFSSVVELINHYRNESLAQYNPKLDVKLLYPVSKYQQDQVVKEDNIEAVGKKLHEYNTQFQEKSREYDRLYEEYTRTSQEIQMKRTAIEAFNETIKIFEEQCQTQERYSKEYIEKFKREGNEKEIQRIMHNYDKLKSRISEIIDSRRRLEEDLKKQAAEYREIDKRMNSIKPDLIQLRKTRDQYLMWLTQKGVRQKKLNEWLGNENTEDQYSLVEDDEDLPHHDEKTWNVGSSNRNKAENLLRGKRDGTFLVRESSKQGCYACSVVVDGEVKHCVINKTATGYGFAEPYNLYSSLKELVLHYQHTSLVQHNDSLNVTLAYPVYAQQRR
Sequence of HDAC3 (O15379 whole entry): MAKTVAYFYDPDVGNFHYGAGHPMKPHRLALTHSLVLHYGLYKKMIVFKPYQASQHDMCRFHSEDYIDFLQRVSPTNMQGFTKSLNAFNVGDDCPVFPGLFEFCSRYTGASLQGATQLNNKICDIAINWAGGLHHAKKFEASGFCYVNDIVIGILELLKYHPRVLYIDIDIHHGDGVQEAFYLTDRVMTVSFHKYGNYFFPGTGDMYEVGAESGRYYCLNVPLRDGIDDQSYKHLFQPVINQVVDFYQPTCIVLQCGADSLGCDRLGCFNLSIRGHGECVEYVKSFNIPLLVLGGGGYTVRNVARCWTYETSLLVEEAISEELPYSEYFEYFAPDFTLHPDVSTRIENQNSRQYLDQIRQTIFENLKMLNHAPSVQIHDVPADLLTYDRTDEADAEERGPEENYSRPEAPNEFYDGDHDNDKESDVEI
Sequence of HDAC3 (Q9Y618 395-489 partner limits assumed): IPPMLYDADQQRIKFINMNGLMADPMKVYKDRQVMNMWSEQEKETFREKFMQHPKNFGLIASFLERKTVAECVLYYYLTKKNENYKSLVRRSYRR
Sequence of PI3Kα (P42336 whole entry): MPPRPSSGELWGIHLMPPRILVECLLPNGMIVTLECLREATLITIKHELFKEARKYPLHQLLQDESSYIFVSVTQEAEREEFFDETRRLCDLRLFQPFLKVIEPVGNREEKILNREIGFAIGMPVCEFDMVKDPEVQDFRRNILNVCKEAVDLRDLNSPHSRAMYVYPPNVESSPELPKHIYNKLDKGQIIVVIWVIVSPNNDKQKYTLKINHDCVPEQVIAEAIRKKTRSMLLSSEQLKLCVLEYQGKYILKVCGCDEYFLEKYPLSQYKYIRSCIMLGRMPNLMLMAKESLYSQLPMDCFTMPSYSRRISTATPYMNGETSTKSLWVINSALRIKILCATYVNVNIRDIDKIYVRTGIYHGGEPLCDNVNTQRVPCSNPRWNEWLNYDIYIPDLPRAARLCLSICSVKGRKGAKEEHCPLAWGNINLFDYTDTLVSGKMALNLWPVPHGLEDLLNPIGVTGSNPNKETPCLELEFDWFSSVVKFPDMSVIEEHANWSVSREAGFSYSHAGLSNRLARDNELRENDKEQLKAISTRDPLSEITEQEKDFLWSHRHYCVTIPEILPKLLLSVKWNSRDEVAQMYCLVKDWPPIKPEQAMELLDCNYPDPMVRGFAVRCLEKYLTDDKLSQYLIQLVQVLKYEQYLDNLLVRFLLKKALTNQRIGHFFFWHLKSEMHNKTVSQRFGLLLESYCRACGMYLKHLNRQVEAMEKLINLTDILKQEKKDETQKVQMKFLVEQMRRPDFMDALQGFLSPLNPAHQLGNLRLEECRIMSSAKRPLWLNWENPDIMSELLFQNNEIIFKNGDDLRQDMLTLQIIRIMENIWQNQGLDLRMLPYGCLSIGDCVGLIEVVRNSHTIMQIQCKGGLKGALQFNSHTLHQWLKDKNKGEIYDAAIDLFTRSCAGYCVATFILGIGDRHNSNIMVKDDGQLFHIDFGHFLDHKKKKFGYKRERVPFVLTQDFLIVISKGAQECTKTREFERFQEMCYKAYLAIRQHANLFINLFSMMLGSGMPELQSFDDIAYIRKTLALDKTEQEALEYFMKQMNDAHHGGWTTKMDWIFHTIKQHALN
Sequence of PI3Kα (P27986 whole entry partner): as the sequence (P27986 whole entry partner) above
Sequence of PI3Kβ (P42338 whole entry): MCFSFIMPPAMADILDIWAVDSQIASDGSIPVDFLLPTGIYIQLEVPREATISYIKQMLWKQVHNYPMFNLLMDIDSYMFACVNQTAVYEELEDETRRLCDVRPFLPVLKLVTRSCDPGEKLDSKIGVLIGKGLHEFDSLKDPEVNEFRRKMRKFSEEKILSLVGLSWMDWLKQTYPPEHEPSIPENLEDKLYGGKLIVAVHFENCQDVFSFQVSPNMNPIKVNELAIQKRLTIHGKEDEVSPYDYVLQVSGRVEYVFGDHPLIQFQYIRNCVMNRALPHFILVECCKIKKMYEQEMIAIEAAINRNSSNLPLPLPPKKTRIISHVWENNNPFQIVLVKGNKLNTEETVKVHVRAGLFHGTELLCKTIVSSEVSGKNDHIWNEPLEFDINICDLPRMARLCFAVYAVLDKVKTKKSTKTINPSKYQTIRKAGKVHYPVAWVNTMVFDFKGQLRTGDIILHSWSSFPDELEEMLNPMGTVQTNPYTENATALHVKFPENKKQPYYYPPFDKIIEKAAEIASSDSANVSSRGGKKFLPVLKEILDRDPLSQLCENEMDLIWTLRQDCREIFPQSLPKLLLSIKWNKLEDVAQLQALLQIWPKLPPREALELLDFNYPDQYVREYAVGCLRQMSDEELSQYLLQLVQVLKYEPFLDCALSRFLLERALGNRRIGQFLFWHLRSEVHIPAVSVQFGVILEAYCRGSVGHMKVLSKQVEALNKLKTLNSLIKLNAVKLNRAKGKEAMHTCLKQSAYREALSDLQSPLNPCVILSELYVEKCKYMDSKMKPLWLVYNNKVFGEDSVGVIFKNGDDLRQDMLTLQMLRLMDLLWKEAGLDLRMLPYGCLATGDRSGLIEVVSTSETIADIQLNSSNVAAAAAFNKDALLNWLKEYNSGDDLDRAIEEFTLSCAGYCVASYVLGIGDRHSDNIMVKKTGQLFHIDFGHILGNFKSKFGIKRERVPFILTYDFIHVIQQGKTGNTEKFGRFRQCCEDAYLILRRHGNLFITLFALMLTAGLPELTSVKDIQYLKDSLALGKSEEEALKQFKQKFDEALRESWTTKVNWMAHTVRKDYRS
Sequence of PI3Kβ (P27986 whole entry partner): as the sequence (P27986 whole entry partner) above
Sequence of HDAC8 (Q9BY41 whole entry): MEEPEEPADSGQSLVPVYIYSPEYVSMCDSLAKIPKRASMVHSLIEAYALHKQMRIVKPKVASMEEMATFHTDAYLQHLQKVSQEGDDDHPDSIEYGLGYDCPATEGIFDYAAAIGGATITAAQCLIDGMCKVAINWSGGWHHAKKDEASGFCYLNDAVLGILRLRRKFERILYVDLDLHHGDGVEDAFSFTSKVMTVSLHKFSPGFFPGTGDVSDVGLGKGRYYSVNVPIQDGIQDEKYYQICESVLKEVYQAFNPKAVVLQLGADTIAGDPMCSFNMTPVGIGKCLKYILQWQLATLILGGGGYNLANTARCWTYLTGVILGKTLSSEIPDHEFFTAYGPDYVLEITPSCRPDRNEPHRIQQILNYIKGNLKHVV

| SMILES | IC50 (PI3Kα) | IC50 (LY2 breast cancer cells) | remaining activity at 0.5 µM (HDAC10) | IC50 (MCF‐10A cells) | remaining activity at 0.5 µM (HDAC8) | IC50 [1] | remaining activity at 0.5 µM (HDAC3) | IC50 ([2]; Homo sapiens, MDA-MB-231, 72 h) | IC50 [2] | remaining activity at 0.5 µM (PI3Kβ) | remaining activity at 0.5 µM (PI3Kδ) |
| --- | --- | --- | --- | --- | --- | --- | --- | --- | --- | --- | --- |
| COc1ccc(-c2nc(NCc3ccc(C(=O)NO)cc3)nc(N3CCOCC3)n2)cn1 [Compound 5f, N‐Hydroxy‐4‐(((4‐(6‐Methoxypyridin‐3‐yl)‐6‐Morpholino‐1,3,5‐Triazin‐2‐yl)Amino)Methyl)Benzamide] | 236 nM | 8.81 ± 0.59 µM | 28.1% | < 1000 nM | 46.9% | 3.5 ± 0.95 µM | 26.6% | < 5 µM | 3.3 ± 0.13 µM | 86.9% | 59.2% |
| O=C(NO)c1ccc(CNc2nc(-c3cccc(O)c3)nc(N3CCOCC3)n2)cc1 [Compound 5b, N‐Hydroxy‐4‐(((4‐(3‐Hydroxyphenyl)‐6‐Morpholino‐1,3,5‐Triazin‐2‐yl)Amino)Methyl)Benzamide] | 17.5 nM | 4.68 ± 1.34 µM | 15.9% | < 1000 nM | 46.3% | 5.72 ± 0.76 µM | 22.6% | < 5 µM | 4.4 ± 0.54 µM | 40.1% | 8.24% |
